Common to all, as to assay type: cell-based
For experiment [1], the target named is T1, serotonin transporter (SERT) (Homo sapiens, UniProt P31645).
T1 construct: expressed in transfected cells; host or cells: HEK-293
The experiment is described as follows: Serotonin reuptake inhibition, [3H]-5-HT, HEK-293 cells transfected with 5-HT transporter cDNA. As to conditions: for Triple reuptake inhibition (Ratio %) SERT: compound 1 μM, [3H]-5-HT, relative to control without compound = 100%, lower value = more inhibition; for IC50: concentration at which Ratio % is 50%, 6 concentrations 1 nM to 1 μM, read-out: Triple reuptake inhibition (IC50, μM) SERT. The method, then:
(§1) In order to evaluate the reuptake inhibitory effect of the compounds of the Examples according to the present invention on serotonin, norepinephrine and dopamine, the experiments below were performed, and the results are shown in Table 17.
(§2) To evaluate the reuptake inhibition effect on dopamine, the dopamine transporter cDNA was transfected using the HEK-293 cell line, and then sub-seeded in a 24 well plate the next day. After removing the medium, each compound of the Examples or Comparative Examples diluted to 1 μM in uptake buffer was added to a concentration of 200 μl/well and cultured at 37° C. for 15 minutes. 100 μl of uptake buffer containing 20-30 nM [3H]-DA was added and cultured at 37° C. for 5 minutes. The reaction solution was quickly removed and washed three times with 1 ml ice-cold uptake buffer. After dissolving the resultant in 1% SDS (0.5 ml), the degree of binding of radioisotope-labeled dopamine to the transporter was measured.
(§3) For norepinephrine (NE) and serotonin (5-HT), the degree of binding of radioisotope-labeled norepinephrine or serotonin to the transporter was measured in the same manner as above, except that cells transfected with NE or 5-HT transporter cDNA were used and [3H]—NE or [3H]-5-HT was used as a substrate.
(§4) In addition, when evaluating the reuptake inhibitory effect on dopamine, norepinephrine, and serotonin, the same method was performed without treating each compound of the Examples or Comparative Examples as a control, the degree of binding of radioisotope-labeled dopamine, norepinephrine, and serotonin to the transporter was measured, and by using this as a reference (100%), the triple reuptake inhibitory effect was evaluated as a relative ratio (Ratio %). That is, in the control group, the binding of dopamine, norepinephrine, and serotonin to transporters is not inhibited, but when each compound of the Examples is treated and thus the binding is inhibited, the Ratio % value decreases.
(§5) Meanwhile, the Ratio % values were compared, and in the case of the compounds of Examples 6, 10, 13, 14, 17, 20, 21, 22, 30, 31, 32, 34, 36, 38, 39, 40, 54, 55, 56, 57, 58 and 73 with excellent reuptake inhibitory effects on dopamine, norepinephrine and serotonin, the concentration at which the Ratio % is 50% was calculated using a total of 6 concentrations (1 nM, 5 nM, 10 nM, 50 nM, 100 nM, and 1 μM) and expressed as IC50.

The target in experiment [2] is T2, norepinephrine transporter (NET) (Homo sapiens, UniProt P23975).
T2 construct: expressed in transfected cells; host or cells: HEK-293
The experiment is described as follows: Norepinephrine reuptake inhibition, [3H]-NE, HEK-293 cells transfected with NE transporter cDNA. As to conditions: for Triple reuptake inhibition (Ratio %) NET: compound 1 μM, [3H]-NE, relative to control without compound = 100%, lower value = more inhibition; for IC50: concentration at which Ratio % is 50%, 6 concentrations 1 nM to 1 μM, read-out: Triple reuptake inhibition (IC50, μM) NET. Here is the method: as §1, §2, §3, §4, §5

For experiment [3], the target named is T3, dopamine transporter (DAT) (Homo sapiens, UniProt Q01959).
T3 construct: expressed in transfected cells; host or cells: HEK-293
The experiment is described as follows: Dopamine reuptake inhibition, [3H]-DA, HEK-293 cells transfected with dopamine transporter cDNA. As to conditions: for Triple reuptake inhibition (Ratio %) DAT: compound 1 μM, 20-30 nM [3H]-DA, relative to control without compound = 100%, lower value = more inhibition; for IC50: concentration at which Ratio % is 50%, 6 concentrations 1 nM to 1 μM, read-out: Triple reuptake inhibition (IC50, μM) DAT. The method, then: as §1, §2, §4, §5

T2 sequence (P23975 whole entry, species assumed): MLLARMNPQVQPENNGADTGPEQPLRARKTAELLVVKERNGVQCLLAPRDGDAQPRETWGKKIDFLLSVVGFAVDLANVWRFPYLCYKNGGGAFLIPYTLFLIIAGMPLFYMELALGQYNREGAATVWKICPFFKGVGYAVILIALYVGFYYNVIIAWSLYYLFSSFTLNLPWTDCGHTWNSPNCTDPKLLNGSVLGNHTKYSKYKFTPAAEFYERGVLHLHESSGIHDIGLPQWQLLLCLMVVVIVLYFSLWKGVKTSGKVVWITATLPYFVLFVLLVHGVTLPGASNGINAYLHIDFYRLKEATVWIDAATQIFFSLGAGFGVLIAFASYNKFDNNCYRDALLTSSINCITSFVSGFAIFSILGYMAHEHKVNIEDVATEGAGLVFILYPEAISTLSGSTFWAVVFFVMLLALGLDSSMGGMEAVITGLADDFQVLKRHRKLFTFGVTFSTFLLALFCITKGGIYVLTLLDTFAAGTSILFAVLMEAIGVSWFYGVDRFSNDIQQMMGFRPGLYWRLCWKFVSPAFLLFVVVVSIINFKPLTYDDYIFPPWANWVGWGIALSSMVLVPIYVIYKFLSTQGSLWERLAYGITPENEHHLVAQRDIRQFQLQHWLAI
T3 sequence (Q01959 whole entry, species assumed): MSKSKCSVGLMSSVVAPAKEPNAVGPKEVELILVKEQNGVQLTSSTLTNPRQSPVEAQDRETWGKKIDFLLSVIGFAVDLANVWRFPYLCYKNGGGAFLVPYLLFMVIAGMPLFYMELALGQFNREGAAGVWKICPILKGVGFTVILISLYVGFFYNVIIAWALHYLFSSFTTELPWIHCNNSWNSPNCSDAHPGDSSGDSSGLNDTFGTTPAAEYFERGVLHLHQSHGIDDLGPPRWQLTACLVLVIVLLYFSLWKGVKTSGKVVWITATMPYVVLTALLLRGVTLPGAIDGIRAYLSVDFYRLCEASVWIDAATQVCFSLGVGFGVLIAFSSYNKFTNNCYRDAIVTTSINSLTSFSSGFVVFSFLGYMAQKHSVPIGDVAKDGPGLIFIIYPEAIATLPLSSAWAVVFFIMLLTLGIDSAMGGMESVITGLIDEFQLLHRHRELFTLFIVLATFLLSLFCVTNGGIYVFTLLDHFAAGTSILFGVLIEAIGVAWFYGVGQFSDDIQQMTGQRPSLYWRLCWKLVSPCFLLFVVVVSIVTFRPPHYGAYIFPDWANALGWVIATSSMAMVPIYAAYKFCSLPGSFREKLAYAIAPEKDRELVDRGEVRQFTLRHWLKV
T1 sequence (P31645 whole entry, species assumed): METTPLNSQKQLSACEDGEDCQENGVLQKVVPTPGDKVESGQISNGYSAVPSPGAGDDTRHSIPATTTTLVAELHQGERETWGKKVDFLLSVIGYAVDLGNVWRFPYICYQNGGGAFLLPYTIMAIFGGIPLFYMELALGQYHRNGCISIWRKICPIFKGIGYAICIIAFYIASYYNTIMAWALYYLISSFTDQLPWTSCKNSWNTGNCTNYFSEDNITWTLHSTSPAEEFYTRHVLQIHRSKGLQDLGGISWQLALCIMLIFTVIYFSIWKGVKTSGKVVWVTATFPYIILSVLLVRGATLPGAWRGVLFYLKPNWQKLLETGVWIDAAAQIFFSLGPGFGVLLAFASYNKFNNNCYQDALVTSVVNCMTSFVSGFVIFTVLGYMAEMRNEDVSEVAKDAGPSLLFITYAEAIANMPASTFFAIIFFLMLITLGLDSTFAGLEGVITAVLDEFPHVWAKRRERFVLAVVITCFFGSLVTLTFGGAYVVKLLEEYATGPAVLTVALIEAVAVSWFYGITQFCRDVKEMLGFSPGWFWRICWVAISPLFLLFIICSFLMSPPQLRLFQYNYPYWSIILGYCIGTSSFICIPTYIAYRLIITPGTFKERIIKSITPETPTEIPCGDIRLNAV

With `O=S(=O)(NCCCN1CCN(c2ccc(Cl)cc2)CC1)c1ccc2ccccc2c1` [Example 70, N-(3-(4-(4-chlorophenyl)piperazin-1-yl)propyl)naphthalen-2-sulfonamide], the “Triple reuptake inhibition (Ratio %) SERT” value in experiment [1] amounted to 45.16%. The “Triple reuptake inhibition (Ratio %) NET” value in experiment [2] came to 87.27%. In experiment [3], the “Triple reuptake inhibition (Ratio %) DAT” value is listed as 86.5%.

In the case of `CCCCOc1ccc(S(=O)(=O)NCCCN2CCC(Cc3ccccc3)CC2)nc1` [Example 35, N-(3-(4-benzylpiperidinyl)propyl)-5-butoxypyridin-2-sulfonamide], the “Triple reuptake inhibition (Ratio %) SERT” value in experiment [1] turned out to be 53.08%. In experiment [2], the “Triple reuptake inhibition (Ratio %) NET” value is listed as 51.99%. In addition, the “Triple reuptake inhibition (Ratio %) DAT” value in experiment [3] was found to be 16.12%.

As for `O=S(=O)(NCCCN1CCN(c2ccc(Cl)cc2)CC1)c1ccc2ccccc2n1` [Example 73, N-(3-(4-(4-chlorophenyl)piperazin-1-yl)propyl)quinolin-2-sulfonamide], in experiment [1], the “Triple reuptake inhibition (Ratio %) SERT” value came to 47.19% and the IC50 worked out at 0.102 µM. For the same molecule, in experiment [2], the “Triple reuptake inhibition (Ratio %) NET” value worked out at 64.45%. Also, the “Triple reuptake inhibition (Ratio %) DAT” value in experiment [3] came out at 68.53%.

For `O=S(=O)(NCCCN1CCC(Cc2ccccc2)CC1)c1cccc2ccccc12` [Example 55, N-(3-(4-benzylpiperidin-1-yl)propyl)naphthalen-1-sulfonamide], in experiment [1], the “Triple reuptake inhibition (Ratio %) SERT” value is listed as 46.18% and the IC50 was found to be 1.45 µM. Besides, in experiment [2], the “Triple reuptake inhibition (Ratio %) NET” value is on record as 31.83% and the half-maximal inhibitory concentration (IC50) was 1.3 µM. In experiment [3], the “Triple reuptake inhibition (Ratio %) DAT” value came out at 35.21% and the half-maximal inhibitory concentration (IC50) was found to be 1.55 µM.

`CCCCOc1ccc(S(=O)(=O)NCCCN2CCC(Cc3ccc(C)cc3)CC2)cc1` [Example 29, 4-butoxy-N-(3-(4-(4-methylbenzyl)piperidin-1-yl)propyl)benzenesulfonamide]: the “Triple reuptake inhibition (Ratio %) SERT” value in experiment [1] was determined as 39.39%. Further, the “Triple reuptake inhibition (Ratio %) NET” value in experiment [2] is given as 54.04%. Also, the “Triple reuptake inhibition (Ratio %) DAT” value in experiment [3] was determined as 89.50%.

In the case of `O=S(=O)(NCCN1CCC(c2ccccc2)CC1)c1ccc(-c2ccccc2)cc1` [Example 44, N-(2-(4-phenylpiperidin-1-yl)ethyl)-[1,1′-biphenyl]-4-sulfonamide], the “Triple reuptake inhibition (Ratio %) SERT” value in experiment [1] worked out at 15.55%. Moreover, in experiment [2], the “Triple reuptake inhibition (Ratio %) NET” value was 14.04%. Also, the “Triple reuptake inhibition (Ratio %) DAT” value in experiment [3] is listed as 37.93%.

In the case of `O=S(=O)(NCCN1CCN(c2ccc(Cl)cc2)CC1)c1ccc2ccccc2c1` [Example 50, N-(2-(4-(4-chlorophenyl)piperazinyl)ethyl)naphthalen-2-sulfonamide], the “Triple reuptake inhibition (Ratio %) SERT” value in experiment [1] is listed as 45.16%. Also, the “Triple reuptake inhibition (Ratio %) NET” value in experiment [2] was determined as 87.27%. Moreover, the “Triple reuptake inhibition (Ratio %) DAT” value in experiment [3] turned out to be 86.50%.

Take `O=S(=O)(NCCN1CCC(Cc2ccccc2)CC1)c1cc2ccccc2[nH]1` [Example 36, N-(2-(4-benzylpiperidin-1-yl)ethyl)-1H-indol-2-sulfonamide]: the “Triple reuptake inhibition (Ratio %) SERT” value in experiment [1] worked out at 72.85%. In experiment [2], the “Triple reuptake inhibition (Ratio %) NET” value is 79.12%. Moreover, in experiment [3], the “Triple reuptake inhibition (Ratio %) DAT” value is listed as 30.48% and the IC50 amounted to 0.843 µM.

`O=S(=O)(NCCN1CCC(Cc2ccccc2)CC1)c1ccc(F)cc1` [Example 2, N-(2-(4-benzylpiperidin-1-yl)ethyl)-4-fluorobenzenesulfonamide]: the “Triple reuptake inhibition (Ratio %) SERT” value in experiment [1] worked out at 100.21%. Moreover, in experiment [2], the “Triple reuptake inhibition (Ratio %) NET” value is on record as 61.32%. In addition, the “Triple reuptake inhibition (Ratio %) DAT” value in experiment [3] is given as 73.55%.

On to `O=S(=O)(NCCN1CCC(c2ccccc2)CC1)c1ccc2ccccc2c1` [Example 42, N-(2-(4-phenylpiperidin-1-yl)ethyl)naphthalen-2-sulfonamide], for which, in experiment [1], the “Triple reuptake inhibition (Ratio %) SERT” value turned out to be 64.15%. Moreover, the “Triple reuptake inhibition (Ratio %) NET” value in experiment [2] amounted to 34.97%. Further, in experiment [3], the “Triple reuptake inhibition (Ratio %) DAT” value is 80.21%.

As to `O=S(=O)(NCCN1CCN(c2ccc(Cl)cc2)CC1)c1ccc(-c2ccccc2)cc1` [Example 52, N-(2-(4-(4-chlorophenyl)piperazin-1-yl)ethyl)-[1,1′-biphenyl]-4-sulfonamide], the “Triple reuptake inhibition (Ratio %) SERT” value in experiment [1] worked out at 47.19%. Further, the “Triple reuptake inhibition (Ratio %) NET” value in experiment [2] is given as 64.45%. Also, the “Triple reuptake inhibition (Ratio %) DAT” value in experiment [3] is given as 68.53%.

Consider `CCCCOc1ccc(S(=O)(=O)NCCCN2CCN(c3cccc(C(F)(F)F)c3)CC2)cc1` [Example 26, 4-butoxy-N-(3-(4-(3-(trifluoromethyl)phenyl)piperazin-1-yl)propyl)benzenesulfonamide], for which the “Triple reuptake inhibition (Ratio %) SERT” value in experiment [1] was determined as 50.98%. Further, in experiment [2], the “Triple reuptake inhibition (Ratio %) NET” value is on record as 93.31%. Further, the “Triple reuptake inhibition (Ratio %) DAT” value in experiment [3] was 97.83%.

As for `O=C(CCN1CCCCC1)Nc1ccc(S(=O)(=O)NCCCN2CCC(Cc3ccccc3)CC2)cc1` [Example 17, N-(4-(N-(3-(4-benzylpiperidin-1-yl)propyl)sulfamoyl)phenyl)-3-(piperidin-1-yl)propaneamide], in experiment [1], the “Triple reuptake inhibition (Ratio %) SERT” value is given as 9.28% and the IC50 was determined as 0.057 µM. Also, in experiment [2], the “Triple reuptake inhibition (Ratio %) NET” value was 58.66% and the half-maximal inhibitory concentration (IC50) came out at 1.56 µM. Further, in experiment [3], the “Triple reuptake inhibition (Ratio %) DAT” value is on record as 40.96% and the IC50 was determined as 5.17 µM.

Regarding `CCCCOc1ccc(S(=O)(=O)NCCCN2CCC(Cc3ccc(F)c(F)c3)CC2)cc1` [Example 21, 4-butoxy-N-(3-(4-(3,4-difluorobenzyl)piperidinyl)propyl)benzenesulfonamide], in experiment [1], the “Triple reuptake inhibition (Ratio %) SERT” value was 38.74% and the IC50 came to 0.455 µM. Besides, in experiment [2], the “Triple reuptake inhibition (Ratio %) NET” value is listed as 26.67% and the IC50 came to 0.946 µM. Moreover, in experiment [3], the “Triple reuptake inhibition (Ratio %) DAT” value is recorded as 57.35% and the 50% inhibitory concentration (IC50) came out at 4.72 µM.

For “N-(3-(4-benzylpiperidin-1-yl)propyl)-4-butoxybenzenesulfineamide [Example 19]”, in experiment [1], the “Triple reuptake inhibition (Ratio %) SERT” value is 67.86%. The “Triple reuptake inhibition (Ratio %) NET” value in experiment [2] came to 64.78%. Besides, the “Triple reuptake inhibition (Ratio %) DAT” value in experiment [3] came to 57.52%.

Take `COc1ccc(S(=O)(=O)NCCCN2CCC(Cc3ccccc3)CC2)cc1` [Example 14, N-(3-(4-benzylpiperidin-1-yl)propyl)-4-methoxybenzenesulfonamide]: in experiment [1], the “Triple reuptake inhibition (Ratio %) SERT” value is listed as 55.67% and the IC50 was determined as 1.75 µM. In addition, in experiment [2], the “Triple reuptake inhibition (Ratio %) NET” value is on record as 22.30% and the IC50 came out at 0.173 µM. Besides, in experiment [3], the “Triple reuptake inhibition (Ratio %) DAT” value was 39.90% and the IC50 came to 1.26 µM.

As for `CCCCOc1ccc(S(=O)(=O)NCCCN2CCN(c3cccc(Cl)c3Cl)CC2)cc1` [Example 24, 4-butoxy-N-(3-(4-(2,3-dichlorophenyl)piperazin-1-yl)propyl)benzenesulfonamide], in experiment [1], the “Triple reuptake inhibition (Ratio %) SERT” value is reported as 60.27%. In addition, the “Triple reuptake inhibition (Ratio %) NET” value in experiment [2] is reported as 58.70%. For the same molecule, the “Triple reuptake inhibition (Ratio %) DAT” value in experiment [3] worked out at 99.30%.

`CCCCOc1ccc(S(=O)(=O)NCCCN2CCN(c3ccc(Cl)c(Cl)c3)CC2)cc1` [Example 23, 4-butoxy-N-(3-(4-(3,4-dichlorophenyl)piperazin-1-yl)propyl)benzenesulfonamide]: in experiment [1], the “Triple reuptake inhibition (Ratio %) SERT” value is listed as 41.32%. Also, the “Triple reuptake inhibition (Ratio %) NET” value in experiment [2] is 83.63%. The “Triple reuptake inhibition (Ratio %) DAT” value in experiment [3] was 99.56%.

Turning to `Cc1ccc(-c2ccc(S(=O)(=O)NCCCN3CCC(Cc4ccccc4)CC3)cc2)cc1` [Example 60, N-(3-(4-benzylpiperidin-1-yl)propyl)-4′-methyl-[1,1′-biphenyl]-4-sulfonamide], the “Triple reuptake inhibition (Ratio %) SERT” value in experiment [1] was determined as 17.76%. Further, the “Triple reuptake inhibition (Ratio %) NET” value in experiment [2] turned out to be 44.79%. Also, the “Triple reuptake inhibition (Ratio %) DAT” value in experiment [3] is listed as 9.15%.

As to `O=S(=O)(NCCN1CCC(Cc2ccccc2)CC1)c1cccc2ccccc12` [Example 39, N-(2-(4-benzylpiperidin-1-yl)ethyl)naphthalen-1-sulfonamide], the “Triple reuptake inhibition (Ratio %) SERT” value in experiment [1] was found to be 15.77%. For the same molecule, in experiment [2], the “Triple reuptake inhibition (Ratio %) NET” value is recorded as 18.46%. In experiment [3], the “Triple reuptake inhibition (Ratio %) DAT” value was found to be 31.26% and the IC50 is 1.16 µM.

One may read the IC50 as the concentration that inhibits the measured activity by half.

The record behind these values is US20230212121A1 (DAEGU-GYEONGBUK MEDICAL INNOVATION FOUNDATION, priority 2020, published 2023).
